Measured values as given in patent EP0185020B1, “NI[…] PREPARATION THEREOF AND UTILIZATION THEREOF IN ANTICANCEROUS CHEMIOTHERAPY” (CENTRE NATIONAL DE LA RECHERCHE SCIENTIFIQUE (CNRS), priority 1984, dated 1985).

Key:
[1] = test system: leucémie L 1210 greffée i.p.; experiment: Antitumour activity on L1210 leukaemia grafted i.p. in mice, mixtures A1 A2 and B1 B2 (INSERM Unit 71, Example 12); assay type: in vivo, souris B6D2F1/IFFA CREDO; settings: J1, J5, J9
Source text: Au jour J: 0, des souris mâles B6D2F1 âgées de trois mois reçoivent par voie intrapéritonéale 10^5 cellules de la souche leucémique L 1210. Les animaux sont répartis en lots de 8 à 10 animaux pour les groupes témoins et de 6 à 8 animaux pour les groupes traités. Aux jours J : 1, J : 5, J : 9, les animaux reçoivent par voie intrapéritonéale ou intraveineuse le traitement à différentes doses. La CNCC est administrée en suspension dans l'huile d'olive. Les produits selon l'invention sont administrés dans du sérum physiologique. La mortalité est enregistrée tous les jours. La médiane de survie des animaux traités et des animaux témoins a été déterminée. Les résultats sont considérés comme positifs lorsque l'index I = [formula] est supérieur à 125.
La valeur ∞ signifie que 50 à 100% des animaux sont survivants au jour J : 90.
L'activité cytostatique sur la leucémie L 1210 des produits selon l'invention a été évaluée chez des souris B6D2F1/IFFA CREDO d'après le protocole précédemment décrit.
Ont été administrés par voie intrapéritonéale (i.p.) soit le mélange A, A2 dans les proportions suivantes A, (70%) et A2 (30%), soit le mélange B, B2 dans les mêmes proportions, soit la CNCC aux doses suivantes: 10 mg/kg, 20 mg/kg, 30 mg/kg, 40 mg/kg et 50 mg/kg. Les résultats sont présentés sur le tableau Il et appellent les commentaires suivants: • - très bonne efficacité du mélange A, A2 aux doses de 20 mg/kg, 30 mg/kg et 40 mg/kg et du mélange B, B2 aux doses de 20 mg/kg, 30 mg/kg, 40 mg/kg et 50 mg/kg. […] De plus, le nombre de survivants à 90 jours est plus grand chez les animaux ayant reçu les produits selon l'invention par rapport aux animaux ayant reçu la CNCC. […]

[2] = Solubility in solvents allowing intravenous administration; assay type: physicochemical; settings: solvants autorisant l'administration par voie intraveineuse
Source text: Ont été administrés par voie intraveineuse (i.v.) dans la veine caudale, les mélanges A, A2 et B, B2 dans les proportions et aux doses utilisées dans a). La comparaison avec la CNCC pour cette voie d'administration est impossible en raison de l'insolubilité de ce composé dans les solvants autorisant l'administration par voie intraveineuse. Les résultats sont présentés sur le tableau III.

[3] = test system: Leucémie L 1210 (greffée par voie i.c.); settings: Leucémie L 1210 i.c.; 30 mg/kg I.P., jours 1,5,9; cited from earlier work
[4] = test system: Carcinome pulmonaire de Lewis (implanté en sous-cutané); settings: 30 mg/kg I.P., jours 1,5,9; cited from earlier work
[5] = test system: Mélano-carcinome B 16 (implanté en sous-cutané); settings: Mélano-carcinome B 16 s.c.; 30 mg/kg I.P., jours 1,5,9; cited from earlier work
[6] = test system: Gliome 26 (implanté en sous-cutané); settings: Gliome 26 s.c.; 30 mg/kg I.P., jours 1,5,9; cited from earlier work
[7] = test system: Adénocarcinome mammaire TM2 (implanté en sous-cutané); settings: 30 mg/kg I.P., jours 1,5,9; cited from earlier work
[8] = test system: Fibrosarcome I.C.I.G. C1 (implanté en sous-cutané); design: key: N.S.: Non significatif; ∞: 50% en plus des animaux traités sont guéris; settings: 30 mg/kg I.P., jours 1,5,9; cited from earlier work
[9] = test system: Carcinome du côlon (côlon 26) (implanté en sous-cutané); settings: Carcinome du côlon (côlon 26) s.c.; 30 mg/kg I.P., jours 1,5,9; cited from earlier work
[10] = test system: M 555 ovarienne (implanté en sous-cutané); settings: M 555 ovarienne s.c.; 30 mg/kg I.P., jours 1,5,9; cited from earlier work

O=NN(CCCl)C(=O)NCCSSCCNC(=O)N(CCCl)N=O [CNCC]
Nombre de survivants à 90 jours ([1]; 10 mg/kg): 0/6
T/C × 100 ([1]; 10 mg/kg): 250
Nombre de survivants à 90 jours ([1]; 20 mg/kg): 6/6
T/C × 100 ([1]; 20 mg/kg): ∞ (50 à 100% des animaux survivants à 90 jours)
Nombre de survivants à 90 jours ([1]; 30 mg/kg): 6/6
T/C × 100 ([1]; 30 mg/kg): ∞ (50 à 100% des animaux survivants à 90 jours)
Nombre de survivants à 90 jours ([1]; 40 mg/kg): 3/6
T/C × 100 ([1]; 40 mg/kg): ∞ (50 à 100% des animaux survivants à 90 jours)
Nombre de survivants à 90 jours ([1]; 50 mg/kg): 0/6
T/C × 100 ([1]; 50 mg/kg): 125
solubilité, in words [2]: insolubilité
Augmentation de la durée de survie (I.L.S.: T/C×100) [3]: ∞ (50% en plus des animaux traités sont guéris)
Augmentation de la durée de survie (I.L.S.: T/C×100) [4]: ∞ (50% en plus des animaux traités sont guéris)
Augmentation de la durée de survie (I.L.S.: T/C×100) [5]: 200
Augmentation de la durée de survie (I.L.S.: T/C×100) [6]: 200
Augmentation de la durée de survie (I.L.S.: T/C×100) [7]: 185
Augmentation de la durée de survie (I.L.S.: T/C×100) [8]: N.S.
Augmentation de la durée de survie (I.L.S.: T/C×100) [9]: ∞ (50% en plus des animaux traités sont guéris)
Augmentation de la durée de survie (I.L.S.: T/C×100) [10]: >254
